From ChEMBL document CHEMBL1201862, “PubChem BioAssay data set” (2004)
Calls of active or inactive are those of the source.

How the values were obtained:
[1] = A cytotoxicity screen of small molecule inhibitors of the PhoP region in Salmonella typhi identified in the primary screen. [Related pubchem assays: 1850, 1864, 1985 ]; type: functional
Genome polyprotein = Genome polyprotein (dengue virus type 2, UniProt P29990); experiment: Dengue-2 NS5 methyltransferase inhibitors, primary screen, biochemical, confirmation dose response (AID 588689); type: functional
Chain of Genome polyprotein (P29990 2492-3391 limits assumed): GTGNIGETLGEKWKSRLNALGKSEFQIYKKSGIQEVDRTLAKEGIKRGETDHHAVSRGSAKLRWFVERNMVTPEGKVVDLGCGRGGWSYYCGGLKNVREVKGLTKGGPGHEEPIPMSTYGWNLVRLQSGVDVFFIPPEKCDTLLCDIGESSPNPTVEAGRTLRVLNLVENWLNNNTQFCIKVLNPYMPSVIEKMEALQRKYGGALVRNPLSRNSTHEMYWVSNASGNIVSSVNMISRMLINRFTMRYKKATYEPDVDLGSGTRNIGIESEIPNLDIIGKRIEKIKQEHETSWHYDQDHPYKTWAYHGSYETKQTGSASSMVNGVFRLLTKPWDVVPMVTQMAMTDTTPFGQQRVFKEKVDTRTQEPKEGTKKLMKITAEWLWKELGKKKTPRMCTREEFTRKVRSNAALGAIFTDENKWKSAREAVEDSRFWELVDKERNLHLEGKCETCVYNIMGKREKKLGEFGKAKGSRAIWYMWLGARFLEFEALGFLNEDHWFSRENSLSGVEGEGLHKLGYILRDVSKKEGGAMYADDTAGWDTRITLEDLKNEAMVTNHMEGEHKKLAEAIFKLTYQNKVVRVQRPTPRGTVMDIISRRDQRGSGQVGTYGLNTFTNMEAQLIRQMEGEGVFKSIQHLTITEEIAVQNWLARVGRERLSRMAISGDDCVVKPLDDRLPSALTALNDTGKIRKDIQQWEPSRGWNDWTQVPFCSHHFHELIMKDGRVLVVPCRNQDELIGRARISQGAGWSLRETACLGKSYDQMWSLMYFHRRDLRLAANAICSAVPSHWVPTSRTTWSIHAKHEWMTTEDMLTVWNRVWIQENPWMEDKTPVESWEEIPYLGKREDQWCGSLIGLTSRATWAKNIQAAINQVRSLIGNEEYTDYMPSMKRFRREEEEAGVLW

[2] = NIH-3T3 fibroblast cytotoxicity, dose response, cytotoxicity control, cell-based, fluorescence, Alamar Blue, secondary assay (AID 2327); type: functional;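 further: NIH-3T3 mouse fibroblasts cultured with fluconazole at 8 µg/mL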
Aspartyl aminopeptidase = Aspartyl aminopeptidase (Plasmodium falciparum 3D7, UniProt Q8I2J3)
Procathepsin L = Procathepsin L (Homo sapiens, UniProt P07711)
Chain of Procathepsin L (P07711 whole entry): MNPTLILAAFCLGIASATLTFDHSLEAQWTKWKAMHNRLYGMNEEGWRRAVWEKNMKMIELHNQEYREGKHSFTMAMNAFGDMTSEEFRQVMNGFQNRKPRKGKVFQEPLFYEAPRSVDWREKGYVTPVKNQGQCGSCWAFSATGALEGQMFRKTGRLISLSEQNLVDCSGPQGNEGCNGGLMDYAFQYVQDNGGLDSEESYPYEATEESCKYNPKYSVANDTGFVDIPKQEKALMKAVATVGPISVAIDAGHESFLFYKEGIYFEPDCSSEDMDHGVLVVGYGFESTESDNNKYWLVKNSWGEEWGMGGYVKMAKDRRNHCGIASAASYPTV

[3] = C. albicans growth with fluconazole, confirmation, fluorescence, retest (AID 2467); type: functional, cell-based
[4] = target: Scavenger receptor class B member 1 (Mus musculus, UniProt Q61009); experiment: inhibitors of SR-BI mediated HDL lipid uptake, dose response, ldlA[mSR-BI] cells, fluorescence, cherry pick (AID 493194); type: functional, cell-based;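 further: cellular uptake of fluorescent DiI-labeled HDL measured as cell fluorescence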
Chain of Scavenger receptor class B member 1 (Q61009 whole entry): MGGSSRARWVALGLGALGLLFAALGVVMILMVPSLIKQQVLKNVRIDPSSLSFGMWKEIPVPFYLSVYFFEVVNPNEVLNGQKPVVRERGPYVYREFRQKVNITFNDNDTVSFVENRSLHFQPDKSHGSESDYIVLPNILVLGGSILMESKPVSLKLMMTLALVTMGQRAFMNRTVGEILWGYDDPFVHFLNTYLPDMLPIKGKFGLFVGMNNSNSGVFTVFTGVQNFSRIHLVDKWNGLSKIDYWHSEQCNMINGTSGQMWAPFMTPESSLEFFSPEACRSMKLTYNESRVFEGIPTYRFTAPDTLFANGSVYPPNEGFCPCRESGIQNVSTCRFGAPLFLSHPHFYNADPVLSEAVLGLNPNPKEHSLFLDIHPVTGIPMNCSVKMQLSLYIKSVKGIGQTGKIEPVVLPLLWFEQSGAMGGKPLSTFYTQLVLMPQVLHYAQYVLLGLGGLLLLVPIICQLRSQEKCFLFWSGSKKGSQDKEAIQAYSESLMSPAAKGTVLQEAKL

[5] = target: T1, Polyadenylate-binding protein 1 (Homo sapiens, UniProt P11940); experiment: PABP1 MLLE–PAM2 interaction inhibitors, dose response, miRNA deadenylation inhibitor project, biochemical, fluorescence polarization, Cy5-PAM2 peptide, secondary (AID 602260); type: functional; settings: read-out: IC50_Mean
T1 sequence (P11940 whole entry): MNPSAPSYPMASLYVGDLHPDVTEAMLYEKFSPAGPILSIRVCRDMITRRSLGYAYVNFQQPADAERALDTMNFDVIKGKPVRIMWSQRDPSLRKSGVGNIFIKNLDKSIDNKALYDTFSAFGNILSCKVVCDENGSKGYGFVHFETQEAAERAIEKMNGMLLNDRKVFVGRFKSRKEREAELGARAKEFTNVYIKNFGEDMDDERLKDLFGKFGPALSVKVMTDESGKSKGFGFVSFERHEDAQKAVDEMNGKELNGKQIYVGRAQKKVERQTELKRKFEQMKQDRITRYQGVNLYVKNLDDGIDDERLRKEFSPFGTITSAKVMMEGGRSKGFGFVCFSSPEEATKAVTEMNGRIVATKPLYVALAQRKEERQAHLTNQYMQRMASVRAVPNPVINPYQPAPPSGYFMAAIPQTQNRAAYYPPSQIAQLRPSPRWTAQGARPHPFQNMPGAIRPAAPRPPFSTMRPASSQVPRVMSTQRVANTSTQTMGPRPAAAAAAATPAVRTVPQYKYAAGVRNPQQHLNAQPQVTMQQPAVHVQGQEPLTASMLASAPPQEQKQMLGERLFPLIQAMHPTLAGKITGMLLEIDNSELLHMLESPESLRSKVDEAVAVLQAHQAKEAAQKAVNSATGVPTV

[6] = target: T1, Polyadenylate-binding protein 1; experiment: PABP1 MLLE–PAM2 binding inhibitor potency, dose response, biochemical, fluorescence polarization, FITC-PAM2 peptide (AID 602259); type: functional; settings: read-out: IC50_Mean
Beta-lactamase [7] = target: Beta-lactamase (Salmonella choleraesuis (strain SC-B67), UniProt Q5J463); experiment: Epi-absorbance-based counterscreen for selective VIM-2 inhibitors: dose response biochemical high throughput screening assay to identify inhibitors of TEM-1 serine-beta-lactamase.
Chain of Beta-lactamase (Salmonella choleraesuis (strain SC-B67), UniProt Q5J463) (Q5J463 whole entry): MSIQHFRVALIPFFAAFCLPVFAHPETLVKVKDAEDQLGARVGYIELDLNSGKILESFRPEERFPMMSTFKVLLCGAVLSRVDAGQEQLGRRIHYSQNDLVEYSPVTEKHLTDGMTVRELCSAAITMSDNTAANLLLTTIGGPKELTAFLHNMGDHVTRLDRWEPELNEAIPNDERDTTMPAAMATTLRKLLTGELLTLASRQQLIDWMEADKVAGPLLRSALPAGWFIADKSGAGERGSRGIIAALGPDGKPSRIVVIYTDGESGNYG

Beta-lactamase [8] = target: T2, Beta-lactamase (Pseudomonas aeruginosa, UniProt Q79MP6); experiment: IMP-1 metallo-beta-lactamase inhibitors, dose response, selectivity assay for VIM-2 inhibitor project, biochemical, epi-absorbance (AID 1920)
T2 sequence (Q79MP6 whole entry): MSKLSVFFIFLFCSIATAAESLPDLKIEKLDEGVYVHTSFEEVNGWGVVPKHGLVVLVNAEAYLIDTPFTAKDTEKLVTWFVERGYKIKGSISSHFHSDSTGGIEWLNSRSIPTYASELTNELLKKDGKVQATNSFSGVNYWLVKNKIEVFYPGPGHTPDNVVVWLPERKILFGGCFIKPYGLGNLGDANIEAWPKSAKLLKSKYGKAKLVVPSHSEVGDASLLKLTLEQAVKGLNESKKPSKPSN

Beta-lactamase [9] = target: T2, Beta-lactamase; experiment: […] counterscreen for selective VIM-2 inhibitors: dose response biochemical high throughput screening assay to identify inhibitors of IMP-1 metallo-beta-lactamase.
[10] = target: Cyclin-dependent kinase 5/CDK5 activator 1 (Homo sapiens, UniProt Q00535); experiment: CDK5/p35 kinase inhibitors, dose response, biochemical, cherry-picked samples, set 2 (AID 504545)
[11] = target: Photoreceptor-specific nuclear receptor (Homo sapiens, UniProt Q9Y5X4); type: functional;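 further: potency for compounds that break the NR2E3 corepressor complex and count as activators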
Chain of Photoreceptor-specific nuclear receptor (Q9Y5X4 whole entry): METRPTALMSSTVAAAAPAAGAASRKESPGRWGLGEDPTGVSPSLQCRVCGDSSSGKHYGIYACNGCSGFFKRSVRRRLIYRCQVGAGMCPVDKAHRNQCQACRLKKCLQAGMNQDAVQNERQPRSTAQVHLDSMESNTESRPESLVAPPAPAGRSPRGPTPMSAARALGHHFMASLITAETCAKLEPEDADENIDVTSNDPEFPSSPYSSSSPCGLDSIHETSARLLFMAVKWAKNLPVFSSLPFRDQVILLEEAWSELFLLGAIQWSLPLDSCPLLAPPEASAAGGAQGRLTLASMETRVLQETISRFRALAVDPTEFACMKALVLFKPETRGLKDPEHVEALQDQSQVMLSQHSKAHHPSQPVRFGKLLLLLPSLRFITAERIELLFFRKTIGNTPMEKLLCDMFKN

[12] = target: Peroxisome proliferator-activated receptor gamma/Nuclear receptor corepressor 2 (Homo sapiens, UniProt P37231+Q9Y618); type: functional
[13] = target: Ras and Rab interactor 1/Tyrosine-protein kinase ABL1 (Homo sapiens, UniProt P00519+Q13671); type: functional;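 further: biochemical TR-FRET dose-response test measuring inhibition of binding between Rin1 and Abl proteins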
[14] = target: T3, Histone-lysine N-methyltransferase NSD2 (Homo sapiens, UniProt O96028); type: biochemical
T3 sequence (O96028 whole entry): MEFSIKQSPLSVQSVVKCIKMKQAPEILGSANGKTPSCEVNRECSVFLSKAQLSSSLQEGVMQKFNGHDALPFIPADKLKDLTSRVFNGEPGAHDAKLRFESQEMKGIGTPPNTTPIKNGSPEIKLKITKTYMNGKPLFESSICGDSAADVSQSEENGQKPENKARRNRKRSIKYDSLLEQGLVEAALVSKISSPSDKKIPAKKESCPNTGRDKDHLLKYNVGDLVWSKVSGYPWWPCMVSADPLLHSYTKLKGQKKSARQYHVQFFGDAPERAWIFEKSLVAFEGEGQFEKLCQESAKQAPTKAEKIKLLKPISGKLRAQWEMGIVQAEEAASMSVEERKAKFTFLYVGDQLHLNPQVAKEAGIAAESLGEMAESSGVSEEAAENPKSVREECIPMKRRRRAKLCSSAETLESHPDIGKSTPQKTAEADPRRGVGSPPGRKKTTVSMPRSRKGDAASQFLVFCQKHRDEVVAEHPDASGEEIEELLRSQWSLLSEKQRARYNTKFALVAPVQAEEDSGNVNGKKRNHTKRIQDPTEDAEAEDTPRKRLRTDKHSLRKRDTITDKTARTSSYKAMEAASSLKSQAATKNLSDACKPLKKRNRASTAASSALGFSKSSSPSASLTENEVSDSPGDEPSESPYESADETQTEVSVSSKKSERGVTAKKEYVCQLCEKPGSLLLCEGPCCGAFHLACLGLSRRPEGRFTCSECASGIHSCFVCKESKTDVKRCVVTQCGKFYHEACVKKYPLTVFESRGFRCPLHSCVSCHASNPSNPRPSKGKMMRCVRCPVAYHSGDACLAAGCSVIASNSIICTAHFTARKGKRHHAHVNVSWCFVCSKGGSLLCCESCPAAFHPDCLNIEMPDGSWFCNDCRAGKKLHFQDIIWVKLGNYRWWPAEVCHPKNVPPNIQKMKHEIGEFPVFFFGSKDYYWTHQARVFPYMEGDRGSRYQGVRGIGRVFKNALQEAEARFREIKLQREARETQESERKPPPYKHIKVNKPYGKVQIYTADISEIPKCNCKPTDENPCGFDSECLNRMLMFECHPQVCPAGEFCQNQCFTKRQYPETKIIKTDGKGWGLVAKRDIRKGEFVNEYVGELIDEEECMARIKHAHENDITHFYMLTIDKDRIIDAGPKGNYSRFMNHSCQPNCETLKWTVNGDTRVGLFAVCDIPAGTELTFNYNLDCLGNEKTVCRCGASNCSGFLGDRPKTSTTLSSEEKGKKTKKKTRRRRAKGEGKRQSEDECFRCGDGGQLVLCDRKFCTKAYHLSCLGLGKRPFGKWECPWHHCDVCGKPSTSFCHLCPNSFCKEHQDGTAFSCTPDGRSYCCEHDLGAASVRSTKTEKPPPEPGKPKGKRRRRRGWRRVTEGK

[15] = HEp-2 cell cytotoxicity, dose response, cytotoxicity control for RSV inhibitor project, HTS (AID 2410); type: functional; settings: human respiratory syncytial virus
[16] = Luminescence Cell-Based Dose Retest to Confirm Inhibitors of Cancer Stem Cells. [Related pubchem assays (depositor defined):AID2717, AID2721]; type: functional; settings: Homo sapiens
Cytochrome P450 3A4 = Cytochrome P450 3A4 (Homo sapiens, UniProt P08684); settings: Potency;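 further: confirmatory qHTS run detecting inhibitors and substrates of CYP3A4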
Chain of Cytochrome P450 3A4 (P08684 whole entry): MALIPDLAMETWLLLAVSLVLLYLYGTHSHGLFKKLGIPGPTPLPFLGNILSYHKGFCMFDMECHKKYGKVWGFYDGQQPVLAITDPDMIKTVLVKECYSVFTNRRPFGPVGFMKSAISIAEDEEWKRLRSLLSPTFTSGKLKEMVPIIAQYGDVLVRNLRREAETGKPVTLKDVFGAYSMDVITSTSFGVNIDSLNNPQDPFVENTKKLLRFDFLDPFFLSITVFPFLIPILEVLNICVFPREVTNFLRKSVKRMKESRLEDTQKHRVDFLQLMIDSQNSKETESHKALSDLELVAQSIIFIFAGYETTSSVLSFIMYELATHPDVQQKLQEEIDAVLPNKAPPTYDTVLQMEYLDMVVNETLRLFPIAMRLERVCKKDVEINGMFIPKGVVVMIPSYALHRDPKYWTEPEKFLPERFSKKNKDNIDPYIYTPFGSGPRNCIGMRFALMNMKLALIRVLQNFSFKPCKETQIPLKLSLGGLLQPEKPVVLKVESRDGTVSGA

Cytochrome P450 2C9 = Cytochrome P450 2C9 (Homo sapiens, UniProt P11712); settings: Potency
Chain of Cytochrome P450 2C9 (P11712 whole entry): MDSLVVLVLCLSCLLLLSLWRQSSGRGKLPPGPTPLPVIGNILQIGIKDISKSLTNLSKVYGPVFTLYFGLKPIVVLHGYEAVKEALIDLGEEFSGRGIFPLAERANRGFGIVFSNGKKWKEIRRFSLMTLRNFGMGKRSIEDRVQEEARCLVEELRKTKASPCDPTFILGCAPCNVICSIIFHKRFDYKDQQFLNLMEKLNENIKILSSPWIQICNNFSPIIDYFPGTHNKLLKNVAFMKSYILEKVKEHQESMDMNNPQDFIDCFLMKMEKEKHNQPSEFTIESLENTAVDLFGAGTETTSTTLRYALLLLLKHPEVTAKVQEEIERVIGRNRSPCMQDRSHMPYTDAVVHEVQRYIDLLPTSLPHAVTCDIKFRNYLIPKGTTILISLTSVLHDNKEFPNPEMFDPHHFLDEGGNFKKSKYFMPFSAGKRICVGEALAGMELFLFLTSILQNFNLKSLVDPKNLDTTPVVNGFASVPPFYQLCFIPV

[17] = system: Streptococcus sp. 'group A'; experiment: growth inhibition of control SK(-) GAS strain, dose response, counter-screen for streptokinase expression inhibitor project, luminescence, kanamycin, BacTiterGlo, confirmation (AID 1900); type: functional, organism-based
Streptokinase A = target: T4, Streptokinase A (Streptococcus pyogenes serotype M1, UniProt P10520); experiment: S. pyogenes streptokinase expression inhibitors, potency, dose response, plasminogen activation absorbance, OD405 (AID 1914); type: functional, Streptococcus pyogenes M1 GAS;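 further: secreted streptokinase activity via plasminogen activation per viability signal from cell pellet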
T4 sequence (P10520 whole entry): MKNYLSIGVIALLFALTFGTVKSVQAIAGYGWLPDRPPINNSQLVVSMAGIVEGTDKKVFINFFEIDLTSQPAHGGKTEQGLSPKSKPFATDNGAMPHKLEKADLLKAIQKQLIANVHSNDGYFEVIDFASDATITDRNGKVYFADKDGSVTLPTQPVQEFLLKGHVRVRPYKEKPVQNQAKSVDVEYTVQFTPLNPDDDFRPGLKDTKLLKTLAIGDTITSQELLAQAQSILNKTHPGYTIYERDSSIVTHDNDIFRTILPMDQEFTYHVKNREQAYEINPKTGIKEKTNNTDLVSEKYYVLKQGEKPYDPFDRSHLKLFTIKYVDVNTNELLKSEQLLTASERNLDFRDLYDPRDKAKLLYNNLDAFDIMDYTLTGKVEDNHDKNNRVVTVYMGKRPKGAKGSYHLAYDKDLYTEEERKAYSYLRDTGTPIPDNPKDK

[18] = target: T5, Calpain-2 catalytic subunit (Sus scrofa, UniProt P43367); experiment: pig calpain II inhibitor potency, dose response, biochemical, fluorogenic peptide substrate (AID 1420); type: functional
T5 sequence (P43367 whole entry): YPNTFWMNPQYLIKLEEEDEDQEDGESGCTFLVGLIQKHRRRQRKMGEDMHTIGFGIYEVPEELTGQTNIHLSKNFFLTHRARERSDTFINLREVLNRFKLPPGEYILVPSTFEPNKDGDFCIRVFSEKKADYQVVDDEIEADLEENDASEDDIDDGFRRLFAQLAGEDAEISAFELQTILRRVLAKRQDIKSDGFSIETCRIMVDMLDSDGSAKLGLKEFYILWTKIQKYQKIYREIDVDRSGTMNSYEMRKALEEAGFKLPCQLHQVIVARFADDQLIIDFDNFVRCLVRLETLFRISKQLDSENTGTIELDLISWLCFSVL

Streptococcus = experiment: Group A Streptococcus viability loss, dose response, counter-screen for streptokinase expression inhibitor project, luminescence, BacTiterGlo (AID 1915); type: functional, organism-based;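 further: potency for reduction of bacterial viability or growth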
[19] = target: Neurotensin receptor type 1 (Homo sapiens, UniProt P30989); type: functional;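 further: Image-based confirmatory dose-response assay measuring agonist activity at NTR1; NTR1-expressing U2OS osteosarcoma cells imaged for beta-arrestin GFP spot formation; agonist potency where compounds increase beta-arrestin recruitment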
Chain of Neurotensin receptor type 1 (P30989 whole entry): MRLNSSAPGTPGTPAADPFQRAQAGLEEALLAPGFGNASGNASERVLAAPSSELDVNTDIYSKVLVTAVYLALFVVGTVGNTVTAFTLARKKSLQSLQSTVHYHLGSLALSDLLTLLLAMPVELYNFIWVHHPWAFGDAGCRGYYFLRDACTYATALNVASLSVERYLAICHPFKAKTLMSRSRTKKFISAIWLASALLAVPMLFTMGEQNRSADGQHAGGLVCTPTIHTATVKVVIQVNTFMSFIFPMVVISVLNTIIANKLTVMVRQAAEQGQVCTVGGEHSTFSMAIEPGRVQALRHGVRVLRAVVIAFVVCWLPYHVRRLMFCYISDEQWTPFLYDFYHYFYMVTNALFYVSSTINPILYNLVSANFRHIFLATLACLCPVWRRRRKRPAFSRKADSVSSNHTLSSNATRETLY

Question: For `COc1cc(/C=C(/C#N)C(=O)Nc2ccccc2)c(Br)cc1OCc1ccc(C(=O)O)cc1`, which EC50 [1] is on record?
Answer: > 50 µM (active)

Question: What about the IC50 (Genome polyprotein) of the same compound?
Answer: 66.6 µM (active)

Question: For `Cc1ccc([N+](=O)[O-])cc1-c1[nH]c(-c2ccc(O)c(O)c2)nc1-c1ccccc1`, which EC50 [2] is on record?
Answer: 57.8 µM (active)

Question: What about the IC50 (Aspartyl aminopeptidase) of the same compound?
Answer: 1.69 µM (active)

Question: And the IC50 (Procathepsin L)?
Answer: > 59.6 µM (not active)

Question: What about the EC50 [3] of the same compound?
Answer: > 38 µM (not active)

Question: Which AC50 [4] does the source give for `CC(C)OCCCNC(=O)c1ccc(C2SCC(=O)N2Cc2ccco2)cc1` (centres undefined) here?
Answer: 1 µM (active)

Question: For `O=C(NC(=S)Nc1ccc(S(=O)(=O)Nc2nccs2)cc1)c1cccnc1`, which EC50 [1] is on record?
Answer: > 50 µM (active)

Question: And the IC50 [5]?
Answer: > 66 µM (inactive)

Question: And the IC50 [6]?
Answer: > 66 µM (inactive)

Question: Which results are given for `O=C1Nc2cc(C(=O)N3CCC(N4CCCCC4)CC3)ccc2S/C1=C\c1ccccc1`?
Answer: IC50 (Beta-lactamase [7]): > 59.6 µM (inactive); IC50 (Beta-lactamase [8]): > 59.6 µM (inactive); IC50 (Beta-lactamase [9]): > 59.6 µM (inactive); AC50 [10]: 21.2 µM (active)

Question: For `Oc1cc(OCc2ccccc2)ccn1`, which IC50 [11] is on record?
Answer: > 39.8 µM (not active)

Question: What about the IC50 [12] of the same compound?
Answer: 16.6 µM (not active)

Question: What about the IC50 [13] of the same compound?
Answer: 0.0261 µM (active)

Question: What about the AC50 [14] of the same compound?
Answer: 11.5 µM (active)

Question: For `COc1ccc(-n2sc3c(c2=S)-c2cc(OC)ccc2NC3(C)C)cc1`, which CC50 [15] is on record?
Answer: 18.4 µM (active)

Question: What about the AC50 [16] of the same compound?
Answer: 2.53 µM (active)

Question: And the AC50 [4]?
Answer: 16.1 µM (active)

Question: With `COc1ccc(OC)c(-c2ccccc2/C=N/NS(=O)(=O)c2ccc(C)cc2)c1` as the compound, how does the AC50 (Cytochrome P450 3A4) read?
Answer: 3.16 µM (inconclusive)

Question: What about the AC50 (Cytochrome P450 2C9) of the same compound?
Answer: 7.94 µM (inconclusive)

Question: With `CC(C)C[C@H](NC(=O)c1[nH]cnc1C(=O)N[C@@H](C)c1ccccc1)C(=O)OCc1ccccc1` as the compound, how does the EC50 [17] read?
Answer: 0.656 µM (active)

Question: And the EC50 (Streptokinase A)?
Answer: > 150 µM (inconclusive)

Question: And the IC50 [18]?
Answer: 5.23 µM (not active)

Question: What about the EC50 (Streptococcus) of the same compound?
Answer: 40.7 µM (active)

Question: What about the EC50 [19] of the same compound?
Answer: 5.4 µM (active)

Question: Which AC50 (Cytochrome P450 2C9) does the source give for `C/C=C/OC(=O)NC(c1ccccc1)[C@@]1(C(=O)OCC)CCCC1=O` (some centres undefined) here?
Answer: 3.98 µM (inconclusive)
